Laboratory results taken from patent US20060009506A1, “Drugs for the treatment of neoplastic disorders” (Odyssey Thera, Inc., priority 2004, published 2006).

Assays:
MIA PaCa-2 cells = assay: MTT proliferation assay, pancreatic carcinoma MIA PaCa-2; format: cell-based; settings: Homo sapiens, Tumor Cell: Pancreatic (MIA PaCa-2), concentrations tested in microM
From the text: (§1) We first screened compounds derived from the known pharmacopeia and from a selected natural product collection using two types of assays: (a) measurements of post-translational modifications of proteins; (b) measurements of protein-protein interactions. For the purpose of measuring post-translational modifications of proteins, we used immunofluorescence methods combined with phospho-specific antibodies. For the purpose of quantifying and localizing protein complexes we used fluorescence methods based on protein-fragment complementation assays (PCA). ‘Hits’ from the initial screens were then tested for antiproliferative activity in up to 5 different human tumor cell lines. […] For drugs with antiproliferative activity in PC-3 cells, dose-response curves were generated to determine the EC50 for antiproliferative activity and additional tumor cell lines were tested to determine the breadth of activity. Methods for assay development, validation, screening, and testing of antiproliferative activity are described below.
(§2) Cells were maintained in various media as follows: A549, LoVo and PC-3 (Ham's F12K medium with 2 mM L-glutamine and 1.5 g/L sodium bicarbonate), MIA PaCa-2 (Dulbecco's modified Eagle's medium with 4 mM L-glutamine and 4.5 g/L glucose), U87-MG (MEM+Earle's BSS). Medium for each cell line was supplemented with 10% FBS and […] Penecillin/Streptomycin. All cells were grown in incubators set at 37° C., 5% CO2. Thiazolyl Blue Tetrazolium Bromide (MTT) based proliferation assays were performed to assess the anti-proliferative activities of the compounds on these cells. Cells were seeded in 96 well plates at a density of 750 cells/well 24 hours prior to compound treatment. The cells were incubated with varying concentrations of compounds for 120 hours. […] Drug treatment was performed in 5 replicate wells. Background absorbance was established by wells containing medium but no cells. Vehicle (DMSO) only was used as control. MTT (Sigma-Aldrich, St. Louis, Mo.) was added to each well at a final concentration of 0.5 mg/ml. Following a 2 hour incubation at 37° C., medium in the wells was replaced with 0.15 ml DMSO. The plates were agitated for 15 min using a microtiter plate shaker.

A549 cells = assay: MTT proliferation assay, non-small cell lung carcinoma A549; format: cell-based, Human; settings: Tumor Cell: NSCLC (A549), concentrations tested in microM
From the text: as §1, §2

cancer cells = assay: Antiproliferative activity against cancer cells (cell line not stated); format: cell-based, human; settings: general statement
From the text: as §1
Cells were maintained in various media as follows: A549, LoVo and PC-3 (Ham's F12K medium with 2 mM L-glutamine and 1.5 g/L sodium bicarbonate), MIA PaCa-2 (Dulbecco's modified Eagle's medium with 4 mM L-glutamine and 4.5 g/L glucose), U87-MG (MEM+Earle's BSS). Medium for each cell line was supplemented with 10% FBS and […] Penecillin/Streptomycin. All cells were grown in incubators set at 37° C., 5% CO2. Thiazolyl Blue Tetrazolium Bromide (MTT) based proliferation assays were performed to assess the anti-proliferative activities of the compounds on these cells. Cells were seeded in 96 well plates at a density of 750 cells/well 24 hours prior to compound treatment. The cells were incubated with varying concentrations of compounds for 120 hours. Compound concentrations range from 0.03 to 100 microM (half log increments) except for alpha-Tomatine (0.001-100 microM, half log increments), Neriifolin (0.0002-100 microM) and Peruvoside (0.01-100 microM). Drug treatment was performed in 5 replicate wells. Background absorbance was established by wells containing medium but no cells. Vehicle (DMSO) only was used as control. MTT (Sigma-Aldrich, St. Louis, Mo.) was added to each well at a final concentration of 0.5 mg/ml. Following a 2 hour incubation at 37° C., medium in the wells was replaced with 0.15 ml DMSO. The plates were agitated for 15 min using a microtiter plate shaker. […] Mean absorbance values were calculated from 5 replicate wells of each drug treatment following subtraction of background absorbance from blank samples and plotted as a percentage of control.

cancer pathways = assay: Screening of cancer pathways in human cells (PCA and phospho-immunofluorescence); format: cell-based; settings: cancer pathway in which the drug was active; screened at 10 micromolar, HEK293 cells
From the text: as §1
Immunofluorescence was performed on drug-treated cells using antibodies that specifically recognize phosphorylated forms of key signaling proteins. HEK293T cells were seeded in black-walled, poly-lysine coated 96-well plates (Greiner) at a density of 30,000/well. After 24 hours, cells in duplicate wells were treated with drugs. 100 ng/ml hEGF added to the cells during the last 5 min of drug treatment. The cells were rinsed once with PBS and fixed with 4% formaldehyde for 10 min. The cells were subsequently permeabilized with 0.25% Triton X-100 in PBS and incubated with 3% BSA for 30 min to block non-specific antibody binding. Each of the 4 sets of identically treated cells were then incubated with rabbit antibodies against phosphorylated CREB (Ser133), hsp27 (Ser82), pERK (T202/Y204) (Cell Signaling), or BSA in PBS. The cells were rinsed with PBS and incubated with Alexa488 conjugated goat anti-rabbit secondary antibody (Molecular Probes). Cell nuclei were stained with Hoechst33342 (Molecular Probes). Images were acquired using Discovery-1 High Content Imaging System (Molecular Devices). Background fluorescence due to nonspecific binding by the secondary antibody was established with the use of cells that were incubated with BSA/PBS and without primary antibodies. Fluorescence intensities were quantitated using Image J-based image analysis algorithm as described below.
Reporter fragments for PCA were generated by oligonucleotide synthesis (Blue Heron Biotechnology, Bothell, Wash.). First, oligonucleotides coding for polypeptide fragments YFP[1]and YFP[2] […] Next, PCR mutagenesis was used to generate the mutant fragments IFP[1] and IFP[2]. The IFP[1] fragment corresponds to YFP[1]-(F46L, F64L, M153T) and the IFP[2] fragment corresponds to YFP[2]-(V163A, S175G). […] The YFP[1], YFP[2], IFP[1] and IFP[2] fragments were amplified by PCR to incorporate restriction sites and a linker sequence, described below, in configurations that would allow fusion of a gene of interest to either the 5′- or 3′-end of each reporter fragment. The reporter-linker fragment cassettes were subcloned into a mammalian expression vector (pcDNA3.1Z, Invitrogen) that had been modified to incorporate the replication origin (oriP) of the Epstein Barr virus (EBV). […] Additionally, these vectors still retain the SV40 origin, allowing for episomal expression in cell lines expressing the SV40 large T antigen (e.g. HEK293T, Jurkat or COS). […] PCA fusion constructs were prepared for a large number of proteins known to participate in cellular pathways (Table 1 and Table 2). The full coding sequence for each gene of interest was amplified by PCR from a sequence-verified full-length cDNA.

| IC50 (MIA PaCa-2 cells; MIA PaCa-2, 120 h) | IC50 (A549 cells; Homo sapiens, A549, 120 h) | IC50 (A549 cells; 120 hours) | SMILES | Antiproliferative activity against cancer cells (cancer cells) | IC50 (MIA PaCa-2 cells; 120 hours) | IC50 (A549 cells; Homo sapiens, 120 hours) | Pathway Activity (cancer pathways) |
| --- | --- | --- | --- | --- | --- | --- | --- |
| 20400 nM | 21900 nM | – | COC(=O)C1=C(C)NC(C)=C(C(=O)OCCN(C)Cc2ccccc2)C1c1cccc([N+](=O)[O-])c1 (stereo not shown) [Nicardipine] | – | – | – | – |
| – | – | – | Cc1c(N(C)CS(=O)(=O)[O-])c(=O)n(-c2ccccc2)n1C.[Na+] [dipyrone] | substantial antiproliferative activity | – | – | – |
| – | – | – | C[C@H]1CC[C@]2(NC1)O[C@H]1C[C@H]3[C@@H]4CC[C@H]5C[C@@H](O[C@@H]6O[C@H](CO)[C@H](O[C@@H]7O[C@H](CO)[C@@H](O)[C@H](O[C@@H]8OC[C@@H](O)[C@H](O)[C@H]8O)[C@H]7O[C@@H]7O[C@H](CO)[C@@H](O)[C@H](O)[C@H]7O)[C@H](O)[C@H]6O)CC[C@]5(C)[C@H]4CC[C@]3(C)[C@H]1[C@@H]2C [Tomatine] | substantial antiproliferative activity | 100 nM | 60 nM | invasion/metastasis |
| – | – | – | CO[C@H]1[C@H](O)[C@H](O[C@H]2CC[C@@]3(C=O)[C@H](CC[C@@H]4[C@@H]3CC[C@]3(C)[C@@H](C5=CC(=O)OC5)CC[C@]43O)C2)O[C@@H](C)[C@@H]1O [Peruvoside] | substantial antiproliferative activity | < 30 nM | < 30 nM | cell cycle |
| 180 nM | 780 nM | – | CCCCCCCCNC(C)C(O)c1ccc(SC(C)C)cc1 (stereo not shown) [Suloctidil] | substantial antiproliferative activity | – | – | invasion/metastasis |
| – | – | – | Cc1c(NC(C)C)c(=O)n(-c2ccccc2)n1C [Ramifenazone] | substantial antiproliferative activity | – | – | invasion/metastasis |
| 58300 nM | 56400 nM | – | COc1c2ccoc2cc2oc(=O)ccc12 [Bergaptene] | substantial antiproliferative activity | – | – | proliferation; invasion/ |
| – | – | – | CN[C@H]1CC[C@@H](c2ccc(Cl)c(Cl)c2)c2ccccc21 [Sertraline] | substantial antiproliferative activity | – | – | apoptosis |
| 1930 nM | 11900 nM | – | CNCCCN1c2ccccc2CCc2ccccc21 [Desipramine] | substantial antiproliferative activity | – | – | proliferation |
| – | – | – | C[n+]1cc2c3c(ccc2c2ccc4cc5c(cc4c21)OCO5)OCO3 [Sanguinarine] | – | 1930 nM | 2230 nM | – |
| – | – | – | Cc1c(N(C)C)c(=O)n(-c2ccccc2)n1C [4-dimethylaminoantipyrine] | substantial antiproliferative activity | – | – | – |
| – | – | – | Fc1ccc(C(c2ccc(F)cc2)N2CCN(C/C=C/c3ccccc3)CC2)cc1 [Flunarizine] | substantial antiproliferative activity | – | – | invasion/metastasis |
| – | 180 nM | 280 nM | COC(=O)Nc1nc2ccc(C(=O)c3ccccc3)cc2[nH]1 [Mebendazole] | substantial antiproliferative activity | – | – | invasion/metastasis |
| – | – | – | COC(=O)[C@H]1[C@H]2C[C@@H]3c4[nH]c5cc(OC)ccc5c4CCN3C[C@H]2C[C@@H](OC(=O)c2cc(OC)c(OC)c(OC)c2)[C@@H]1OC [reserpine, Reserpine] | substantial antiproliferative activity | – | – | – |
| – | – | – | CCN(CCCCOC(=O)c1ccc(OC)c(OC)c1)C(C)Cc1ccc(OC)cc1 (stereo not shown) [Mebeverine] | substantial antiproliferative activity | – | – | invasion/metastasis |
| – | – | – | CCN(CC)CCOc1ccc(C(=C(Cl)c2ccccc2)c2ccccc2)cc1 [Clomiphene] | substantial antiproliferative activity | – | – | proliferation |
| 68200 nM | 18800 nM | – | C=C1c2c(Cl)ccc(O)c2C(=O)C2=C(O)[C@]3(O)C(=O)C(C(N)=O)=C(O)[C@@H](N(C)C)[C@@H]3[C@@H](O)[C@H]12 [Meclocycline] | – | – | – | – |
